Source: the NIST ThermoML archive (doi:10.1016/j.tca.2017.06.023)

Columns and labels:
[1] = xn = mol fraction of the nth substance listed; conditions: 100 kPa, Liquid, x2 = 0; for viscosity: Capillary tube (Ostwald / Ubbelohde) method; for speed of sound: Frequency=3 MHz, Sing-around technique in a fixed-path interferometer; for mass density: Vibrating tube method
[2] = refractive index (Na D-line) (dimensionless); xn = mol fraction of the nth substance listed; conditions: 100 kPa, Liquid, Standard Abbe refractometry, x2 = 0
[3] = refractive index (Na D-line) (dimensionless); conditions: 100 kPa, Liquid, Standard Abbe refractometry
[4] = 100 kPa, Liquid; for viscosity: Capillary tube (Ostwald / Ubbelohde) method; for speed of sound: Frequency=3 MHz, Sing-around technique in a fixed-path interferometer; for mass density: Vibrating tube method

CC(C)O [propan-2-ol] + CC(=O)N(C)C
Conditions	mass density, [1] [kg/m3]	refractive index, [2]	speed of sound, [1] [m/s]	viscosity, [1] [mPa·s]
283.15 K	793.41	1.38149	1191.9	3.306
298.15 K	781.07	1.37505	1139.2	2.051
313.15 K	768	1.36829	1086.6	1.334

CC(C)O [propan-2-ol]
Conditions	mass density, [4] [kg/m3]	refractive index, [3]	speed of sound, [4] [m/s]	viscosity, [4] [mPa·s]
283.15 K	793.41	1.38149	1191.9	3.306
298.15 K	781.07	1.37505	1139.2	2.051
313.15 K	768	1.36829	1086.6	1.334

CCC(C)O (stereo not drawn) [butan-2-ol]
Conditions	mass density, [4] [kg/m3]	refractive index, [3]	speed of sound, [4] [m/s]	viscosity, [4] [mPa·s]
283.15 K	814.99	1.40126	1266	5.652
298.15 K	802.71	1.39515	1212.2	3.07
313.15 K	789.86	1.38878	1157.6	1.796

CCC(C)O (stereo not drawn) [butan-2-ol] + CC(=O)N(C)C
Conditions	mass density, [1] [kg/m3]	refractive index, [2]	speed of sound, [1] [m/s]	viscosity, [1] [mPa·s]
283.15 K	814.99	1.40126	1266	5.652
298.15 K	802.71	1.39515	1212.2	3.07
313.15 K	789.86	1.38878	1157.6	1.796
